Measurements taken from PubChem BioAssay (NCI).
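In this assay, cells in 96-well plates receive the compound at five concentrations for 48 hours. Endpoints are linearly interpolated between the surrounding concentrations. TGI is the concentration that stops growth completely.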

What was measured:
Test in all cases: NCI-60 cell line screen, 48 h
MOLT-4 leukemia = test system: MOLT-4 leukemia
MCF7 breast = test system: MCF7 breast
SK-MEL-2 melanoma = test system: SK-MEL-2 melanoma
SK-MEL-5 melanoma = test system: SK-MEL-5 melanoma
BT-549 breast = test system: BT-549 breast
NCI-H460 lung = test system: NCI-H460 lung
NCI-H23 lung = test system: NCI-H23 lung
DU-145 prostate = test system: DU-145 prostate
ACHN renal = test system: ACHN renal
NCI/ADR-RES ovarian = test system: NCI/ADR-RES ovarian

Structure (SMILES) | TGI (MOLT-4 leukemia) | TGI (MCF7 breast) | TGI (SK-MEL-2 melanoma) | TGI (SK-MEL-5 melanoma) | TGI (BT-549 breast) | TGI (NCI-H460 lung) | TGI (NCI-H23 lung) | TGI (DU-145 prostate) | TGI (ACHN renal) | TGI (NCI/ADR-RES ovarian)
CC1=C(C(=O)OC(C)(C)C)C(c2ccc([N+](=O)[O-])cc2)C(C(=O)OC(C)(C)C)=C(C)N1 | 41.6 µM | 31.8 µM | 46.6 µM | 32.9 µM | 44.1 µM | 38.6 µM | 45.3 µM | 62.4 µM | 41.3 µM | –
Cc1ccc(C)c(C(=O)CC2OC(O)C(Cl)C2Cl)c1 (stereo unspecified) | > 100 µM | – | > 100 µM | > 100 µM | – | > 100 µM | > 100 µM | – | > 100 µM | –
COc1ccc(-c2cc(=O)c3cc(OC)c(OC)cc3[nH]2)cc1OC | > 100 µM | > 100 µM | – | > 100 µM | > 100 µM | > 100 µM | > 100 µM | > 100 µM | > 100 µM | > 100 µM
Cc1cc(NS(=O)(=O)c2ccc(NC(NC(=O)OC(C)C)(C(F)(F)F)C(F)(F)F)cc2)nc(C)n1 | > 100 µM | > 100 µM | – | > 100 µM | – | > 100 µM | > 100 µM | > 100 µM | > 100 µM | > 100 µM
N#Cc1c(N)n(-c2nc3ccccc3s2)c(=O)c2cc([N+](=O)[O-])ccc12 | 19.9 µM | 41.3 µM | 40.3 µM | – | > 62.7 µM | > 65.8 µM | 36.5 µM | > 100 µM | > 72.8 µM | 22.8 µM
CNc1nc(OC)c2c(n1)[n+](C)cn2C | > 100 µM | – | > 100 µM | > 100 µM | > 100 µM | > 100 µM | > 100 µM | > 100 µM | > 100 µM | > 100 µM
Nc1cc(O)c2cc(N=Nc3ccc(N=Nc4ccc(N=Nc5ccc6cc(S(=O)(=O)O)cc(S(=O)(=O)O)c6c5)c5ccccc45)c4cc(S(=O)(=O)O)ccc34)c(S(=O)(=O)O)cc2c1 | > 100 µM | > 100 µM | > 100 µM | > 100 µM | – | > 100 µM | > 100 µM | – | – | > 100 µM
Clc1cc2ncn(C3CCCO3)c2cc1Cl (stereo unspecified) | > 100 µM | > 100 µM | > 100 µM | > 100 µM | 86.4 µM | – | > 100 µM | > 100 µM | > 100 µM | > 100 µM
COc1c(-c2nc3nc(N4CCN(C)CC4)ccc3[nH]2)cc(OC)c2c1nc(CCl)n2C | 58.3 µM | – | 29.3 µM | – | 40.4 µM | 52.8 µM | 47 µM | 78.2 µM | 26.9 µM | > 100 µM
CC(=O)Oc1cc(OC(C)=O)c2c(c1C)CC[C@@H]1[C@@H]2CC[C@]2(C)[C@@H](OC(C)=O)CC[C@@H]12 | 36.1 µM | 34.1 µM | – | 30.8 µM | 34.1 µM | 34.1 µM | 38.8 µM | 61 µM | 31.2 µM | 57.6 µM
COc1cc(O)c2c(=O)c(O)c(-c3ccc(O)c(O)c3)oc2c1 | > 100 µM | 60.7 µM | – | 58.6 µM | – | 20.6 µM | – | 25.5 µM | 24.9 µM | 32.9 µM
CC(C)[C@H](NC(=O)OCc1ccccc1)C(=O)N[C@H](/C=C/C(=O)OC(C)(C)C)CO | > 100 µM | > 100 µM | > 100 µM | > 100 µM | – | > 100 µM | > 100 µM | > 100 µM | > 100 µM | > 100 µM
CCOC(=O)c1sc2nc(SC)nc3c2c1NCN3c1ccccc1Cl | > 100 µM | – | > 100 µM | > 100 µM | > 100 µM | > 100 µM | > 100 µM | > 100 µM | > 100 µM | > 100 µM
CC(C)=C[C@@H]1C[C@H](C)[C@H]2CC[C@H](C)[C@H]3C(=O)C(O)=C(C)C(=O)[C@]123 | > 100 µM | > 100 µM | – | > 100 µM | > 100 µM | > 100 µM | > 100 µM | > 100 µM | > 100 µM | > 100 µM
O=CC12CCCN1CCC2 | > 100 µM | – | > 100 µM | > 100 µM | > 100 µM | > 100 µM | > 100 µM | > 100 µM | > 100 µM | > 100 µM
Cn1c(=O)c2c(n(C)c1=O)n1c(=O)c3ccccc3nc1n2C | > 100 µM | > 100 µM | > 100 µM | > 100 µM | > 100 µM | – | > 100 µM | > 100 µM | > 100 µM | > 100 µM
Nc1nc2c(ccc3ccccc32)[nH]1 | > 10 µM | > 10 µM | > 10 µM | > 10 µM | – | > 10 µM | > 10 µM | > 10 µM | > 10 µM | > 10 µM
CN(C)c1ccc(/C=C2\CCCCCC2=O)cc1 | > 100 µM | > 100 µM | > 100 µM | > 100 µM | > 100 µM | > 100 µM | – | > 100 µM | > 100 µM | > 100 µM
CCCCSC1=N/C(=C\c2ccccc2O)C(Cl)=N1 | > 100 µM | > 100 µM | > 100 µM | – | > 100 µM | > 100 µM | > 100 µM | > 100 µM | > 100 µM | > 100 µM
Cc1ccc(C(=O)C2CC3(CCC2(O)c2ccc(C)cc2)CC(=O)Nc2ccccc2C3=O)cc1 (stereo unspecified) | > 100 µM | > 100 µM | > 100 µM | 97.6 µM | > 100 µM | > 100 µM | > 100 µM | > 100 µM | – | > 100 µM
COc1ccc(N=C(SSC(=Nc2ccc(OC)cc2)c2ccc([N+](=O)[O-])o2)c2ccc([N+](=O)[O-])o2)cc1 | > 31.3 µM | – | 4.73 µM | 19.5 µM | 3.22 µM | > 24.3 µM | 3.2 µM | 2.92 µM | 4.1 µM | –
CCc1n[nH]c(=O)n1-c1ccncc1 | > 100 µM | > 100 µM | – | > 100 µM | > 100 µM | > 100 µM | > 100 µM | > 100 µM | > 100 µM | > 100 µM
C/C(=C\CNc1ncnc2c1ncn2CCC#N)CO | > 100 µM | > 100 µM | – | > 100 µM | – | > 100 µM | > 100 µM | > 100 µM | > 100 µM | > 100 µM
